Laboratory results: patent US5525625A (priority 1995, dated 1996)

Columns and labels:
3T3-L1 adipocyte cells [1] = assay: Insulin-stimulated synthesis of glycogen; assay type: cell-based, murine; settings: 10 μM concentration
RSV/RAT-1 [2] = assay: Growth in soft-agar, RSV/RAT-1; assay type: cell-based; settings: read-out: Agar Growth IC50
Protocol: (§1) Cells were seeded into 35-mm dishes at 5 to 10,000 cells/dish using growth medium containing 0.3% agar. After chilling to solidify the agar, cells were transfered to a 37° C. incubator. After 7 to 10 days growth, visible colonies were manually enumerated with the aid of a dissecting microscope.

K-Ras/Balb [3] = assay: Growth in soft-agar, K-Ras/Balb; assay type: cell-based; settings: Mus musculus, anchorage independent (soft agar clonogenicity)
Protocol: as §1

K-Ras/Balb [4] = assay: Monolayer growth, K-Ras/Balb; assay type: cell-based; settings: Mus musculus, anchorage dependent
Protocol: (§2) Cells were plated into multi-well plates at 10 to 20,000 cells/mL. Forty-eight hours after seeding, compounds were added to the cell growth medium and incubation was continued for 2 additional days. Cells were then removed from the wells by incubation with trypsin and enumerated with a Coulter counter. Growth in soft-agar.

RSV/RAT-1 [5] = assay: Monolayer growth, RSV/RAT-1; assay type: cell-based; settings: read-out: Monolayer Growth IC50
Protocol: as §2

MAP kinase [6] = assay: Whole cell MAP kinase assay, 3T3-L1 cells stimulated with insulin; assay type: cell-based, murine
Protocol: Cells were then serum-deprived overnight. Cells were exposed to the desired concentrations of compound or vehicle (DMSO) for 30 minutes, followed by addition of a growth factor, e.g., PDGF (100 ng/mL). After a 5-minute treatment with the growth factor, cells were washed with PBS, then lysed in a buffer consisting of 70 mM NaCl, 10 mM HEPES (pH 7.4), 50 mM glycerol phosphate, and 1% Triton X-100. Lysates were clarified by centrifugation at 13,000×g for 10 minutes. Five micrograms of the resulting supernatants were incubated with 10 μg microtubule associated protein-2 (Map2) for 15 minutes at 30° C. in a final volume of 25 μL containing 50 mM Tris (pH 7.4), 10 mM MgCl2, 2 mM EGTA and 30 μM [γ-^32 P]ATP. Reactions were terminated by addition of Laemmli sample buffer.

MEK [7] = molecular target: T1, MEK (Homo sapiens, UniProt Q02750); assay type: biochemical; settings: order of addition experiments
T1 sequence (Q02750 whole entry, the tested form may be a part): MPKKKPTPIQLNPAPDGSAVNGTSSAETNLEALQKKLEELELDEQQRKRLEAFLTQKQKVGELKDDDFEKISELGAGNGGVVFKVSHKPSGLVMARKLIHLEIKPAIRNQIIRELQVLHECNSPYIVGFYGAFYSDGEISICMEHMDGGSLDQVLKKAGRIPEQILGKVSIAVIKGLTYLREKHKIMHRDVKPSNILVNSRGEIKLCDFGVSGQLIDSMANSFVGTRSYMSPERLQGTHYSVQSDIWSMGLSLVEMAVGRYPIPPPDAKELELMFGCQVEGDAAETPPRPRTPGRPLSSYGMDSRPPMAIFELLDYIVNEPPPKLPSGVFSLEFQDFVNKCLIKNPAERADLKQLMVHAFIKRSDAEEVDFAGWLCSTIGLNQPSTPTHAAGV
Protocol: Incorporation of ^32 P into myelin basic protein (MBP) was assayed in the presence of a glutathione S-transferase fusion protein containing p44MAP kinase (GST-MAPK) and a glutathione S-transferase fusion protein containing p45MEK (GST-MEK). […] Compounds were assessed at 10 μM for ability to inhibit incorporation of ^32 P.
To ascertain whether compounds were inhibiting GST-MEK or GST MAPK, two additional protocols were employed. In the first protocol, compounds were added to tubes containing GST-MEK, followed by addition of GST-MAPK, MBP and [γ-^32 P]ATP. In the second protocol, compounds were added to tubes containing both GST-MEK and GST-MAPK, followed by MBP and [γ-^32 P]ATP.

PDGFRβ Tyrosine kinase = PDGFRβ Tyrosine kinase (Homo sapiens, UniProt P09619); assay: Kinase selectivity: PDGFRβ Tyrosine kinase; assay type: biochemical; settings: 50 μM concentration
Chain of PDGFRβ Tyrosine kinase (P09619 33-1106): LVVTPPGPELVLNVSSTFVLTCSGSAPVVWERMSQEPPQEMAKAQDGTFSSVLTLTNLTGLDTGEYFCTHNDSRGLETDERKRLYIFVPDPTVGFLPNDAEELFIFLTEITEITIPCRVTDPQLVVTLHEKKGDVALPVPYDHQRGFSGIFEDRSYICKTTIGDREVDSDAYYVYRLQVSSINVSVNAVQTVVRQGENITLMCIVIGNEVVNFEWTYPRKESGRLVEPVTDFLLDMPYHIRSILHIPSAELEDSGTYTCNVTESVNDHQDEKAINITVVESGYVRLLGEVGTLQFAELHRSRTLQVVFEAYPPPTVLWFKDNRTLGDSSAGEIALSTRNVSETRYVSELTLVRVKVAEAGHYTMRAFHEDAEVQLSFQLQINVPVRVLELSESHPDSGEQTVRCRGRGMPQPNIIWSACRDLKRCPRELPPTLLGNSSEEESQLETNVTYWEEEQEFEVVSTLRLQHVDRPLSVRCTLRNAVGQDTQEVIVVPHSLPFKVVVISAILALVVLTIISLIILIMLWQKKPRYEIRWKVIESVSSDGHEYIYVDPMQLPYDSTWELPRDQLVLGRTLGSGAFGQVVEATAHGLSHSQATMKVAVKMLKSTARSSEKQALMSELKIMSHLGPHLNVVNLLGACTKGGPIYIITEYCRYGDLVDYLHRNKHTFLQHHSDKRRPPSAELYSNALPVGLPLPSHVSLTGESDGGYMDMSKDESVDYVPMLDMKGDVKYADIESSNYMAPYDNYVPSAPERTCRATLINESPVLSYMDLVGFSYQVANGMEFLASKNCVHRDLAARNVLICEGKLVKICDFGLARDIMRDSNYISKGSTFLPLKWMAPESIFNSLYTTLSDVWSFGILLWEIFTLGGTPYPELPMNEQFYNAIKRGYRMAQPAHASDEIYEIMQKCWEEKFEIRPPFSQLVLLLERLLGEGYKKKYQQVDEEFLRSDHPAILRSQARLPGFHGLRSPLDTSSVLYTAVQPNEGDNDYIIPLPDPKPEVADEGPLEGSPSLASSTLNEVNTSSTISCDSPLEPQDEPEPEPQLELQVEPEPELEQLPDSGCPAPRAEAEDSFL

PI-3 kinase = assay: Kinase selectivity: PI-3 kinase; assay type: biochemical; settings: 50 μM concentration
3T3-L1 adipocyte cells [8] = assay: Insulin stimulated uptake of radiolabeled 2-deoxyglucose; assay type: cell-based, murine; settings: 10 μM concentration
MAP kinase [9] = assay: Whole cell MAP kinase assay, PC-12 cells stimulated with NGF; assay type: cell-based; settings: Rattus norvegicus, read-out: IC50, activation of MAP kinase in whole cells
Protocol: To determine if compounds were able to block activation of MAP kinase in whole cells, the following protocol was used: Cells were plated in multi-well plates and grown to confluence. Cells were then serum-deprived overnight. Cells were exposed to the desired concentrations of compound or vehicle (DMSO) for 30 minutes, followed by addition of a growth factor, e.g., PDGF (100 ng/mL). After a 5-minute treatment with the growth factor, cells were washed with PBS, then lysed in a buffer consisting of 70 mM NaCl, 10 mM HEPES (pH 7.4), 50 mM glycerol phosphate, and 1% Triton X-100. Lysates were clarified by centrifugation at 13,000×g for 10 minutes. Five micrograms of the resulting supernatants were incubated with 10 μg microtubule associated protein-2 (Map2) for 15 minutes at 30° C. in a final volume of 25 μL containing 50 mM Tris (pH 7.4), 10 mM MgCl2, 2 mM EGTA and 30 μM [γ-^32 P]ATP. Reactions were terminated by addition of Laemmli sample buffer. Phosphorylated Map2 was resolved on 7.5% acrylamide gels and incorporated radioactivity determined by autoradiography and subsequent excision of the bands followed by scintillation counting.

Balb 3T3 = assay: 3H-Thymidine incorporation, PDGF-stimulated, Balb 3T3; assay type: cell-based; settings: Mus musculus; Balb 3T3, PDGF-stimulated
Protocol: (§3) Cells were plated in multi-well plates and grown to near confluence. The media was then removed and replaced with growth media containing 1% bovine serum albumin. After 24-hour serum starvation, compounds and specific growth factors were added and incubations continued for an additional 24 hours. During the final 2 hours, 3H-thymidine was added to the medium. To terminate the incubations, the medium was removed and cell layers washed twice with ice-cold phosphate-buffered saline. After the final wash, ice-cold 5% trichloroacetic acid was added and the cells incubated for 15 minutes at room temperature. The trichloro-acetic acid solution was then removed and the cell layer washed three times with distilled water. After the final wash, the cell layer was solubilized by addition of 2% sodium dodecylsulfate. Radioactivity in this solution was determined by scintillation counting.

[10] = molecular target: NGFR (trk-A) Tyrosine kinase (Homo sapiens, UniProt P04629); assay: Kinase selectivity: NGFR (trk-A) Tyrosine kinase; assay type: biochemical; settings: 50 μM concentration
Chain of NGFR (trk-A) Tyrosine kinase (P04629 33-796, species assumed): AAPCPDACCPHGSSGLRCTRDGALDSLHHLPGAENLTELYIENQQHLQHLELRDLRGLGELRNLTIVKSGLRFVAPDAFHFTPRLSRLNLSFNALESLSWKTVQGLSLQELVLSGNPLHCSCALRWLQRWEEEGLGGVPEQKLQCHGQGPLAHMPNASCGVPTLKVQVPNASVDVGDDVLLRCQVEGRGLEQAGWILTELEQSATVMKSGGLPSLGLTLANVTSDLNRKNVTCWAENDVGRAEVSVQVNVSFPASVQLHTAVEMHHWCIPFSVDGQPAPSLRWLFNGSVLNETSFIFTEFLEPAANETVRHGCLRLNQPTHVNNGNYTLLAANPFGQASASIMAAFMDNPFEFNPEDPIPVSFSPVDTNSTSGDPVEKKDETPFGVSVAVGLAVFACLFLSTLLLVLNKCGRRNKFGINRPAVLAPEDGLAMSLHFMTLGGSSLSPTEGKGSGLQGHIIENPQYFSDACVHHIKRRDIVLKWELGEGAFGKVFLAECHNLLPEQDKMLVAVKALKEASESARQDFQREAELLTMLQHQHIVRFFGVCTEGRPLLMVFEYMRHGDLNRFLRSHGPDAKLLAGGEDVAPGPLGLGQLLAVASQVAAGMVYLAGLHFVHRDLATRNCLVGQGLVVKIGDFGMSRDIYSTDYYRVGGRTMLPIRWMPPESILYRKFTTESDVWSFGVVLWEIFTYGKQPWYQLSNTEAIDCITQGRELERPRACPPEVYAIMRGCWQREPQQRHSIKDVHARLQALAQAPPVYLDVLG

EGFR/Swiss 3T3 [11] = assay: Monolayer growth, EGFR/Swiss 3T3; assay type: cell-based; settings: EGFR/Swiss 3T3, anchorage dependent
Protocol: as §2

K-Ras/NRK [12] = assay: Monolayer growth, K-Ras/NRK; assay type: cell-based; settings: anchorage dependent
Protocol: as §2

MAP kinase [13] = assay: In vitro MAP kinase assay; assay type: biochemical; settings: 50 μM concentration
Protocol: Inhibitory activity was also confirmed in direct assays. For MAP kinase, 1 μg GST-MAPK was incubated with 40 μg MBP for 15 minutes at 30° C. in a final volume of 50 μL containing 50 mM Tris (pH 7.5), 10 μM MgCl2, 2 μM EGTA, and 10 μM [γ-^32 P]ATP. The reaction was stopped by addition of Laemmli SDS sample buffer and phosphorylated MBP resolved by electrophoresis on a 10% polyacrylamide gel. Radioactivity incorporated into MBP was determined by autoradiography, and subsequently by excision of the bands followed by scintillation counting.

K562 [14] = assay: Monolayer growth, K562; assay type: cell-based; settings: Homo sapiens; K562, anchorage dependent
Protocol: as §2

K-Balb 3T3 = assay: 3H-Thymidine incorporation, PDGF-stimulated, K-Balb 3T3; assay type: cell-based; settings: K-Balb 3T3, PDGF-stimulated
Protocol: as §3

3T3-L1 adipocyte cells [15] = assay: Insulin-stimulated synthesis of lipid; assay type: cell-based, murine; settings: 10 μM concentration
K562 [16] = assay: Growth in soft-agar, K562; assay type: cell-based; settings: Homo sapiens; K562, anchorage independent (soft agar clonogenicity)
Protocol: as §1

v-Raf/3Y1 [17] = assay: Monolayer growth, v-Raf/3Y1; assay type: cell-based; settings: v-Raf/3Y1, anchorage dependent
Protocol: as §2

[18] = molecular target: E. coli histidine kinase NRII (Escherichia coli, UniProt P0AFB5); assay: Kinase selectivity: E. coli histidine kinase NRII; assay type: biochemical; settings: 50 μM concentration
Chain of E. coli histidine kinase NRII (P0AFB5 whole entry): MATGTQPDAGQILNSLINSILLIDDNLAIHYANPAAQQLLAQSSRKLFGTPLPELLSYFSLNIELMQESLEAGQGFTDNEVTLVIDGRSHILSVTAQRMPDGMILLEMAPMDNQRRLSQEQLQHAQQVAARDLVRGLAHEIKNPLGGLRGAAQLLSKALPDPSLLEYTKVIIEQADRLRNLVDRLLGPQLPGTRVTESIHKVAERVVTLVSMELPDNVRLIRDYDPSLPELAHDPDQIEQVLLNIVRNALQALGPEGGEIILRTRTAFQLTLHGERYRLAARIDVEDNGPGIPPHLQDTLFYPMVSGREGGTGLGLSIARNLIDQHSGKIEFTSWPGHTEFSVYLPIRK

RAF = RAF (Homo sapiens, UniProt P04049); assay: Kinase selectivity: RAF; assay type: biochemical; settings: 50 μM concentration
Chain of RAF (P04049 whole entry): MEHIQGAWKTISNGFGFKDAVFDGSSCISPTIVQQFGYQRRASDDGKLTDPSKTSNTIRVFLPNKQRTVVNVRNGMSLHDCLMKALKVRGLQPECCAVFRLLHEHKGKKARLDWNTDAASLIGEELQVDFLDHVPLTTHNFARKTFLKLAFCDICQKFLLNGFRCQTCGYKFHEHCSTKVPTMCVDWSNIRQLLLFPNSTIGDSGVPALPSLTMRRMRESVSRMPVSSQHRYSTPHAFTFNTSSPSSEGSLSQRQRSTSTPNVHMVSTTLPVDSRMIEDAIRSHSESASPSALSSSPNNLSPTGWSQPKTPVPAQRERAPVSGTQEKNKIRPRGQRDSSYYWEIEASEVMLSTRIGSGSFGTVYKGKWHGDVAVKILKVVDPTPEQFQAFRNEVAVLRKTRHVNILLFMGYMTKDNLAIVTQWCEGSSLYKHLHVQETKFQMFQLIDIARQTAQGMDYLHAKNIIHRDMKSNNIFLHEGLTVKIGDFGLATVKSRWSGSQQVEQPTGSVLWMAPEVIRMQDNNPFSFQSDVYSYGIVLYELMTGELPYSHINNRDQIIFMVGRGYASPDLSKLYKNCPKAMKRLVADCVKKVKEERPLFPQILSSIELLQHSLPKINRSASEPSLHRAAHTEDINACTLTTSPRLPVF

MEK [19] = molecular target: T1, MEK; assay type: biochemical
K-Ras/NRK [20] = assay: Growth in soft-agar, K-Ras/NRK; assay type: cell-based; settings: anchorage independent (soft agar clonogenicity)
Protocol: as §1

EGFR Tyrosine kinase = EGFR Tyrosine kinase (Homo sapiens, UniProt P00533); assay: Kinase selectivity: EGFR Tyrosine kinase; assay type: biochemical; settings: 50 μM concentration
Chain of EGFR Tyrosine kinase (P00533 25-1210): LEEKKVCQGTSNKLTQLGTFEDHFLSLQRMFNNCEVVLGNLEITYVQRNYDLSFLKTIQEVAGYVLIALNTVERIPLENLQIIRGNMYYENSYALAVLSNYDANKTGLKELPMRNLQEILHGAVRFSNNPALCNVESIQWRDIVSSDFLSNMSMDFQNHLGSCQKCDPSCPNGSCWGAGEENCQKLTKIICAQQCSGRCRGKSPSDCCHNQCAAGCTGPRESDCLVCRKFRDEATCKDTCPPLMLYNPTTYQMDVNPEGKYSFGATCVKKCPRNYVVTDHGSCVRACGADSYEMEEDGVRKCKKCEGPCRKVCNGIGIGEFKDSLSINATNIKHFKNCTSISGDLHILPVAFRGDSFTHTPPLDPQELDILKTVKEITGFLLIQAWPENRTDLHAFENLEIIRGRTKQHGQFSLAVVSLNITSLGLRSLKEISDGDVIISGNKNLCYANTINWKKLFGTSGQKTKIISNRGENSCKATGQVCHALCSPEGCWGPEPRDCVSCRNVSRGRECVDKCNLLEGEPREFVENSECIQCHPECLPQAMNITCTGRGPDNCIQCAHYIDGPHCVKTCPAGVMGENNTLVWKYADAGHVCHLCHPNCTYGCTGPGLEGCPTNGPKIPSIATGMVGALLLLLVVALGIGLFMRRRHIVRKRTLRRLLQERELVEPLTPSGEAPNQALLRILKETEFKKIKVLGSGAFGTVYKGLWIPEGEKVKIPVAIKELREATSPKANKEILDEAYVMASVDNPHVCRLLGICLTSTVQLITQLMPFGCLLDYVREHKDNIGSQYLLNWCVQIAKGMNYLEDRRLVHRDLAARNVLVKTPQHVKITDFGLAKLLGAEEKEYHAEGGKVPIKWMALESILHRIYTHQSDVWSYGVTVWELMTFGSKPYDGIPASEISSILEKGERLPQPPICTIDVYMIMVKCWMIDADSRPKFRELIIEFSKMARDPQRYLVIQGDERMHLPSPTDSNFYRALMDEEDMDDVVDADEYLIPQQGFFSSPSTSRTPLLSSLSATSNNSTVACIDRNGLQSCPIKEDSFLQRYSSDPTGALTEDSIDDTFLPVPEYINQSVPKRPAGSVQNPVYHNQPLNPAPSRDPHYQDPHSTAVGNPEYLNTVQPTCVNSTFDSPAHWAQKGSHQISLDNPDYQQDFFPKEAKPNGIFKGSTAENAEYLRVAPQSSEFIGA

v-Src = v-Src (Rous sarcoma virus (strain Schmidt-Ruppin A), UniProt P00524); assay: Kinase selectivity: v-Src; assay type: biochemical; settings: 50 μM concentration
Chain of v-Src (P00524 2-526): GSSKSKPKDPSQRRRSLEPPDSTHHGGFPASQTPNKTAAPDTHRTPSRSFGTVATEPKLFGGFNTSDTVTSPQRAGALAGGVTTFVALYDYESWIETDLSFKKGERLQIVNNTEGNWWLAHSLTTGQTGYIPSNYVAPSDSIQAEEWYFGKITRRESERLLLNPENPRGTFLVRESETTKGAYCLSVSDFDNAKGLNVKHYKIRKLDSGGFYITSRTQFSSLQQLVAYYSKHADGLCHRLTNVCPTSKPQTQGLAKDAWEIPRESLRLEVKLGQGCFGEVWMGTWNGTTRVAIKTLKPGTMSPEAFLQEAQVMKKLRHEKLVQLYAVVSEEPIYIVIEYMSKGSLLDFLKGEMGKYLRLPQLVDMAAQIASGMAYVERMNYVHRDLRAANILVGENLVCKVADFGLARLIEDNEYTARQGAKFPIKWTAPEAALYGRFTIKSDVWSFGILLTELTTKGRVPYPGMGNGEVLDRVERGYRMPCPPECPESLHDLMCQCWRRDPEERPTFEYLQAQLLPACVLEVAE

[21] = tested on: Protein kinase C (rat brain homogenate c-PKC mixture); assay: Kinase selectivity: Protein kinase C; assay type: biochemical; settings: 50 μM concentration
v-Raf/3Y1 [22] = assay: Growth in soft-agar, v-Raf/3Y1; assay type: cell-based; settings: v-Raf/3Y1, anchorage independent (soft agar clonogenicity)
Protocol: as §1

EGFR/Swiss 3T3 [23] = assay: Growth in soft-agar, EGFR/Swiss 3T3; assay type: cell-based; settings: EGFR/Swiss 3T3, anchorage independent (soft agar clonogenicity)
Protocol: as §1

## COc1cccc(-c2cc(=O)c3ccccc3o2)c1N [invention compound, 2-(2-amino-3-methoxyphenyl)-4-oxo-4H-[1]benzopyran]
3T3-L1 adipocyte cells [1]
  effect on insulin-stimulated synthesis of glycogen: does not affect
3T3-L1 adipocyte cells [1]; listed as compound
  effect on insulin-stimulated synthesis of glycogen: no effect
RSV/RAT-1 [2]
  IC50: 60 µM
K-Ras/Balb [3]
  IC50: 1.5 µM
K-Ras/Balb [4]
  IC50: 25 µM
RSV/RAT-1 [5]
  IC50: > 100 µM
MAP kinase [6]; Mus musculus, 3T3-L1 cells stimulated with insulin, read-out: IC50, activation of MAP kinase in whole cells
  IC50: 3 µM
MAP kinase [6]; murine 3T3-L1 adipocytes, insulin
  activation of insulin stimulated MAP kinase: does inhibit
MEK [7]
  enzyme inhibited in the cascade (MEK or MAP kinase): inhibiting MEK and not MAP kinase
PDGFRβ Tyrosine kinase
  inhibition of PDGFRβ Tyrosine kinase: does not appreciably inhibit
PI-3 kinase
  inhibition of PI-3 kinase: does not appreciably inhibit
3T3-L1 adipocyte cells [8]
  effect on insulin stimulated uptake of radiolabeled 2-deoxyglucose: does not affect
3T3-L1 adipocyte cells [8]; listed as compound
  effect on insulin stimulated uptake of radiolabeled 2-deoxyglucose: no effect
MAP kinase [9]
  IC50: 7 µM
Balb 3T3
  IC50: 8 µM
[10]
  inhibition of NGFR (trk-A) Tyrosine kinase: does not appreciably inhibit
EGFR/Swiss 3T3 [11]
  IC50: > 100 µM
K-Ras/NRK [12]
  IC50: 40 µM
MAP kinase [13]
  inhibition of MAP kinase: does not appreciably inhibit
K562 [14]
  IC50: > 100 µM
K-Balb 3T3
  IC50: 10 µM
3T3-L1 adipocyte cells [15]
  effect on insulin-stimulated synthesis of lipid: does not affect
3T3-L1 adipocyte cells [15]; listed as compound
  effect on insulin-stimulated synthesis of lipid: no effect
K562 [16]
  IC50: 60 µM
v-Raf/3Y1 [17]
  IC50: 50 µM
[18]
  inhibition of E. coli histidine kinase NRII: does not appreciably inhibit
RAF
  inhibition of RAF: does not appreciably inhibit
MEK [19]
  competition with ATP (kinetic analysis): not competitive with ATP
K-Ras/NRK [20]
  IC50: 2 µM
EGFR Tyrosine kinase
  inhibition of EGFR Tyrosine kinase: does not appreciably inhibit
v-Src
  inhibition of v-Src: does not appreciably inhibit
[21]
  inhibition of Protein kinase C: does not appreciably inhibit
v-Raf/3Y1 [22]
  IC50: 4.5 µM
EGFR/Swiss 3T3 [23]
  IC50: > 100 µM
